Test results: patent US12453708B2, “Aminonaphthoquinone compounds for treatment and/or prevention of fibrosis diseases” (CALGENT BIOTECHNOLOGY CO., LTD., priority 2015, dated 2025)

Tests used:
Format in all cases: cell-based, human
[1] = system: ET-1-induced CTGF expression in WI-38 cells; test: ET-1-induced CTGF expression in WI-38 cells (Western blot); conditions: WI-38 lung fibroblasts, 0.3, 1, 3 or 10 μM for 30 min before and during 2 h ET-1 (10 nM)
Protocol: (§1) FIGS. 2 (A) and (B) show the effect of L056 on ET-1-induced CTGF expression in WI-38 cells. WI-38 lung fibroblasts were incubated with different concentrations of L056 (0.3, 1, 3 or 10 μM) for 30 min before and during incubation for 2 h with ET-1 (10 nM). […] (A), Western blot plot; (B), Quantitative assay of Western blot. WI-38 cells, a normal human embryonic lung fibroblast cell line, were obtained from American Type Culture Collection (Manassas, VA). Cells were grown in MEM nutrient mixture, containing 10% FCS, 2 mM L-glutamine, 0.1 mM NEAA, 1 mM sodium pyruvate, 50 U/ml penicillin G, and 100 µg/ml streptomycin, in a humidified 37° C. incubator with 5% CO2 Cells were used between passages 18 and 30 for all experiments. After reaching confluence, cells were seeded onto 6-cm dishes for immunoblotting. Western blot analyses were performed as described previously (Chen B C, Chang Y S, Kang J C, Hsu M J, Sheu J R, Chen T L, et al. Peptidoglycan induces nuclear factor-kappaB activation and cyclooxygenase-2 expression via Ras, Raf-1, and ERK in RAW 264.7 macrophages. J Biol Chem 2004; 279:20889-97). Briefly, WI-38 lung fibroblasts were cultured in 6-cm dishes. […] The immunoreactivity was detected using enhanced chemiluminescence (ECL) following the manufacturer's instructions. Quantitative data were obtained using a computing densitometer with scientific imaging systems (Kodak, Rochester, NY). […]

WI-38 lung fibroblasts = test: Cell viability test (MTT-assay) in WI-38 cells; conditions: 0.3, 1, 3 or 10 μM for 2 hours
Protocol: WI-38 cells, a normal human embryonic lung fibroblast cell line, were obtained from American Type Culture Collection (Manassas, VA). Cells were grown in MEM nutrient mixture, containing 10% FCS, 2 mM L-glutamine, 0.1 mM NEAA, 1 mM sodium pyruvate, 50 U/ml penicillin G, and 100 µg/ml streptomycin, in a humidified 37° C. incubator with 5% CO2 Cells were used between passages 18 and 30 for all experiments. After reaching confluence, cells were seeded onto 6-cm dishes for immunoblotting. WI-38 lung fibroblasts were incubated with different concentrations of MPTOL056 (0.3, 1, 3 or 10 μM) for 2 hours before MTT-assay.

[2] = system: TGF-β-induced α-SMA expression in WI-38 cells; test: TGF-β-induced α-SMA expression in WI-38 cells (Western blot); conditions: WI-38 lung fibroblasts, 0.3, 1, 3 or 10 μM for 30 min before and during incubation with TGF-β (10 ng/mL)
Protocol: as §1, with “FIGS. 5” for “FIGS. 2”, “on TGF-β-induced α-SMA” for “on ET-1-induced CTGF”, “with TGF-β” for “with ET-1”, “(10 ng/mL).” for “(10 nM).”, “Western blot” for “Western blot.”, “279:20889-97).” for “279:20889-97). Briefly, WI-38 lung fibroblasts were cultured in 6-cm dishes.”

Structure (SMILES): O=C(Nc1ccncc1)c1ccc(CNC2=C(Cl)C(=O)c3ccccc3C2=O)cc1 [Example L056, 4-(((3-chloro-1,4-dioxo-1,4-dihydronaphthalen-2-yl)amino)methyl)-N-(pyridin-4-yl)benzamide]
- ET-1-induced CTGF production/expression [1]: significantly inhibited
- ET-1-induced CTGF production/expression ([1]; listed as MPTOL0560): inhibited
- cell viability (WI-38 lung fibroblasts): did not affect cell viability
- TGF-β-induced α-SMA expression [2]: significantly inhibited
